In patent US10039733B2, “Compositions, method, and kits for treating pulmonary conditions” (NuSirt Sciences, Inc., priority 2013, dated 2018):

How the values were obtained:
NFκB = NFκB protein expression by Western blot in directly treated MLEC; settings: theophylline 1 μM, leucine 0.5 mM, resveratrol 200 nM, FIG. 1
[1] = test system: OVA-induced asthmatic mice; experiment: BALF cellularity by flow cytometry in OVA-induced asthma; assay type: in vivo, Balb/c mice; settings: theophylline 10 mg/kg IP, baseline 12 g leucine diet
Protocol: The interactive effects of leucine and theophylline was evaluated in sixty young adult female Balb/c mice that were randomized to the following six groups (n=10/group):
Group 1 was an untreated control group that was administered a diet containing a baseline level of leucine at 12 g of leucine/day.
Group 2 was a positive control group that was administered dexamethasone via IP injection and a diet containing a baseline level of leucine at 12 g of leucine/day.
Group 3 was administered a diet containing a high level of leucine (diet containing leucine at 12 g/day for days 0-13 and 24 g/day beginning on day 14) and no theophylline or dexamethasone.
Group 4 was administered sub-therapeutic level of theophylline (1 mg/kg theophylline, 10% of therapeutic level) via IP injection and a high leucine diet (diet containing leucine at 12 g/day for days 0-13 and 24 g/day beginning on day 14). […]
Animals were sacrificed on day 28, subjected to bronchial alveolar lavage and the lavage fluid (BALF, 2 mL) and lungs collected. Airway inflammation was evaluated by assessing cellularity of BALF via flow cytometer; parameters used for cellular differentiation were sized granularity, autofluorescence and the expression of the following markers: CD45, Gr-1, CD11b, CCR3, B220 and CD3. […]

IL 6 [2] = experiment: cellular IL 6 content in MLEC (ELISA); assay type: cell-based, mouse; settings: MLEC treated directly; theophylline 1 μM, leucine 0.5 mM, resveratrol 200 nM; FIG. 7
Protocol: (§1) Cells were grown in Dulbecco's modified eagle's medium (DMEM) containing a growth factor supplement (Cell Biologics #M1 166) which included 5% fetal bovine serum (FBS), heparin, EGF, hydrocortisone, L-glutamine and antibiotics at 37° C. in 5% CO2.
(§2) Interleukin 1-β, eotaxin, and interleukin 6 were all measured via enzyme-linked immunosorbent assay using specific antibodies for each cytokine (Abcam, Cambridge, Mass.) and a horseradish peroxidase-based second antibody detection system, with chromogenic detection at 450 nm using a microplate reader (Synergy HT, BioTek Instruments, Winooski, Vt.).
(§3) Following treatment, western blots or ELISA assays were performed on the MLEC to determine the level of various indicators of airway diseases, such as NFκB protein expression, eotaxin secretion, IL1-β secretion, cellular IL6 content or secretion, adiponectin receptor 1 protein expression, and adiponectin receptor 2 protein expression.

IL1-β = IL1-β secretion from MLEC (ELISA); assay type: cell-based, mouse; settings: MLEC treated directly; theophylline 1 μM, leucine 0.5 mM, resveratrol 200 nM; FIG. 4
From the text: as §2

IL 6 [3] = experiment: IL 6 secretion from MLEC (ELISA); assay type: cell-based, mouse; settings: positive control, FIG. 8
Protocol: as §1, §2, §3

eotaxin = eotaxin secretion from MLEC (ELISA); assay type: cell-based, mouse; settings: MLEC treated directly; theophylline 1 μM, leucine 0.5 mM, resveratrol 200 nM; FIG. 5
From the text: as §2

Cn1c(=O)c2[nH]cnc2n(C)c1=O [theophylline]
NFκB protein expression relative to control (NFκB): no independent effect | eosinophil number in BALF ([1]; FIG. 15): modest significant decreases | T-cell number in BALF ([1]; trend not significant (0.05<p<0.1), FIG. 16): modestly reduced | cellular expression of IL 6 (IL 6 [2]): unaffected | IL1-β secretion (IL1-β): no significant independent effect

TNFα
IL 6 secretion (IL 6 [3]): significant increase | eotaxin secretion into the media (eotaxin): no significant effect | IL1-β secretion (IL1-β): significant increase
